How the values were obtained:
Assay in all cases: relative viability (nuclei count vs DMSO), 5 days (fraction); higher = more cells survive
[1] = compound: NS(=O)(=O)OC[C@@H]1C[C@@H](n2ccc3c(N[C@H]4CCc5ccccc54)ncnc32)C[C@@H]1O [MLN4924]
How it was run: (§1)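 Lung cancer cell lines were seeded into 1536-well plates, kept overnight at 37 °C and pinned with five library-drug doses (not always all listed) spaced by √10. After 5 days, nuclei were Hoechst-stained, imaged at 4× and counted with MetaXpress. Viability is treated-well nuclei over vehicle-well nuclei, taken as a median across plates. Plates needed control CV below 25% and at least one doubling.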

[2] = compound: CC[C@H](C)N1C=C(C2=C(C=C(C=C21)C3=CN=C(C=C3)N4CCNCC4)C(=O)NCC5=C(C=C(NC5=O)C)C)C [GSK126]
How it was run: as §1

[3] = compound: C1CC(C1)(C(=O)O)C(=O)O.[NH2-].[NH2-].[Pt+2] [Carboplatin]
How it was run: as §1

[4] = compound: CC[C@H](C)N1C=C(C2=C(C=C(C=C21)C3=CN=C(C=C3)N4CCNCC4)C(=O)NCC5=C(C=C(NC5=O)C)C)C [GSK126] + CS(=O)(=O)CCNCc1ccc(-c2ccc3ncnc(Nc4ccc(OCc5cccc(F)c5)c(Cl)c4)c3c2)o1 [Lapatinib] (partner 2 µM)
How it was run: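 Lung cancer cell lines, seeded in 1536-well plates, were treated the following day by pin tool with a single drug or with five library-drug doses (not always all listed) in √10 steps on top of a fixed anchor-drug dose. Cells were fixed and nuclei stained in one step after 5 days, and nuclei were counted. Relative viability is the nuclei count for treated wells divided by that for vehicle wells, reported as medians of duplicate plates.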

## UMC-11
[1]; 0.04 µM
  relative viability: 0.678
[1]; 0.1265 µM
  relative viability: 0.463
[1]; 0.4 µM
  relative viability: 0.383
[1]; 1.265 µM
  relative viability: 0.189
[1]; 4 µM
  relative viability: 0.19
[2]; 0.08 µM
  relative viability: 1.09
[2]; 0.253 µM
  relative viability: 0.982
[2]; 0.8 µM
  relative viability: 1.02
[2]; 2.53 µM
  relative viability: 1.01
[2]; 8 µM
  relative viability: 1.11
[3]; 0.08 µM
  relative viability: 0.982
[3]; 0.253 µM
  relative viability: 0.996
[3]; 0.8 µM
  relative viability: 1.01
[3]; 2.53 µM
  relative viability: 0.923
[3]; 8 µM
  relative viability: 0.767
[4]; first compound 0.08 µM
  relative viability: 1.05
[4]; first compound 0.253 µM
  relative viability: 0.998
[4]; first compound 0.8 µM
  relative viability: 1.13
[4]; first compound 2.53 µM
  relative viability: 0.796
[4]; first compound 8 µM
  relative viability: 0.959

Reference: the supplement of paper PMC10307832
